Source: US20240316023A1, “BENEDIN, PIPERIDINE, 2-BENZHYDRYL-3-HYDROXY-N-METHYL-, HYDROCHLORIDE AND DERIVATIVES THEREOF FOR USE IN TREATING KLEINE-LEVIN SYNDROME” (priority 2021, published 2024)

Target: T1, Kappa (h) (KOP) (agonist radioligand) (Homo sapiens, UniProt P41145)
T1 construct: CEREP (Eurofins, France), contract panel
Assay: Radioligand binding panel (Eurofins/CEREP), kappa opioid
Conditions: 10^−5 M; % inhibition of control specific binding; read-out: % Inhibition at 10^−5M Benedin
Protocol: Benedin was tested at 10^−5 M, calculated as a % inhibition of control specific binding of a radioactively labeled ligand specific for each target.
This binding profile panel was broadly defined with roughly an equal number of selective, central and peripheral therapeutically relevant targets, including native animal tissues, radioligands and specific enzymes involved in cell cycle regulation in accordance with Eurofins Standard Operating Procedure.
For radioligand binding experiments, the half maximal inhibitory concentration (IC50) and the half maximal effective concentration (EC50) values were determined (via computer software) by nonlinear regression analysis of the competition curves using Hill equation curve fitting. The inhibition constants (Ki) were calculated using the Cheng-Prusoff equation (Ki=IC50/(1+(L/KD)), where L is the concentration of radioligand in the assay, and KD is the affinity of the radioligand for the receptor.^60
The results are expressed as a % control specific binding ([measured specific binding/control specific binding]×100) and as a % inhibition of control specific binding (100−[(measured specific binding/control specific binding)×100] obtained in the presence of the test compounds. […]

T1 sequence (P41145 whole entry): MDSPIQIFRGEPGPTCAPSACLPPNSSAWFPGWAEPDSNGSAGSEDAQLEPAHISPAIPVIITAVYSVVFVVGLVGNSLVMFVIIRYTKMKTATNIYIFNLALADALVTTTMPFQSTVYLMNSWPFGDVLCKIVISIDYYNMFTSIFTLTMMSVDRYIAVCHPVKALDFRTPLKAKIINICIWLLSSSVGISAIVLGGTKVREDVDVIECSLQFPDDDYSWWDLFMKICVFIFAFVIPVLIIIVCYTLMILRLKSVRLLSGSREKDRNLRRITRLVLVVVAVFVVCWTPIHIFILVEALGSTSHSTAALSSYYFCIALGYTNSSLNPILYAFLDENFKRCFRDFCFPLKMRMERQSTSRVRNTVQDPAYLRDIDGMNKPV

## CN1CCCC(O)C1C(c1ccccc1)c1ccccc1 (stereo not shown) [Benedin, 2-benzhydryl-3-hydroxy-N-methyl-piperidine]
  inhibition at 10 µM: 39.2%
